Source: patent EP2444396A1, “PHOTOPROTECTIVE COMPOSITION” (Apoteknos Para La Piel, S.L., priority 2009, dated 2010)
Values joined by “and” are separate entries in the source; they are usually repeats but may differ in a detail not shown here. Equal values may be shown once.

Columns and labels:
[1] = Specific molar absorptivity of p-nitrolophine in MeOH at 379 nm; assay type: physicochemical
Experimental: As a preliminary step, in the case of p-nitrolophine the specific molar absorptivity of the molecule (ε) (A^11) was determined. To that end, 50.4 mg of p-nitrolophine were weight, they were dissolved in 100.0 mL of MeOH (ppa); 4 dilutions were then performed by taking 1.0, 2.0, 5.0 and 10.0 mL from this mother liquor and topping up each of them to a volume of 100.0 ml with MeOH (ppa). […]
The slope of the straight line obtained from these points (Y= 16.717x + 0.03; R2 = 0.9993) therefore coincides with the value of specific molar absorptivity of p-nitrolophine at 379 nm ε(379nm) = 16.717 A.U.L/mol [formula]

[2] = test system: Erythema induced by UVB radiation in mouse; assay: Photoprotection: erythema induced by UVB radiation in mouse skin; assay type: in vivo; parameters: key to Erythema induced by UVB radiation in mouse: presence (+); absence (-); conditions: individual animals No. 1-10; 0.5% gel topical, about 2.5 kJ/m^2 UVB, 24 hours after exposure
Description: The effect of p-nitrolophine and m-nitrolophine on erythema due to exposing the mouse skin to an irradiation source at maximum in the UVB region has been studied in these assays. The results obtained have been compared with the effect of 4-methylbenzylidene camphor (P5000) a substance considered as a UVB solar filter and with the effect of butyl methoxydibenzoylmethane (P1789) an UVA type filter, both products being commonly used in antisolar cosmetics.
35 male mice weighing more than 20 grams have been used. After receiving them, the animals were acclimated for 7 days at the place where the assays were preformed, they were being placed in a cage with controlled temperature (22°C), with relative humidity between 50% and 75%, replacing fresh filtered air approximately 10 times per hour and with 12 h light/dark cycles (7.00 - 19.00 light and from 19.00 to 7.00 dark). For this period and during the experimental period, the animals were fed ad libitum with standard diet for rodents and running water as drink.
The animals were randomly distributed into 4 experimental groups according to Table 7. The products to be tested were directly used, applying them in the form of a gel on an area of the skin such that each animal form its own control.
The test was performed following the method described by Winder et al. ["A study of Pharmacological influences on ultraviolet erythema in guinea pigs". Arch. Int Pharmacodyn, 116:261-292; 1958] and by other authors [Wendy et al. "The local antinociceptive and topical antiinflamatory effects of propyl gallate in rodents". Br. J. Pharmacol, 58:573 -581; 1976; Katiyar et al. "Protective Effects of Silymarin Against Photocarcinogenesis in a Mouse Skin Model". J Natl Cancer Inst 89:556-65; 1997] with slight modifications. The day […] the assay, as much hair as possible were removed from the animals by applying a layer of commercial hair-removing cream to remove all the trace of hair and to leave the skin of the back completely bare. The rest of the hair-removing cream were removed by means of washing and rinsing with running water and the animals were the returned to their corresponding cages where they remained until the following day.
On the day of the assay, the substances to be assayed were blindly applied on the back of the previously labelled animals following a random pattern (randomized). After applying the corresponding treatments, the animals were placed and pinned to the presentation platform of the equipment. The animals were then placed 8 cm from an ultraviolet light source of 4*40w with 313 nm of fundamental emission and a range comprised approximately between 290 and 350 nm and with an anti-UVC filter. The emission spectrum of said light source is depicted in Figure 1.
The exposure was maintained until all the animals have received an approximate total dose of 2.5 kJ/m^2. The dose of irradiation applied was determined by means of a ultraviolet light detector, the response curve of which is shown in Figure 2.
Twenty four hours after ending the exposure, the back of the animals was photographed and they were returned to their cages. The evaluation of erythema was performed by means of a positive/negative criterion, the percentage of protected animals being obtained. The statistic significance of the difference was evaluated by means of the non-parametric Fisher Test.

ERβ = target: T1, ERβ (Homo sapiens, UniProt Q92731); assay: Estrogenicity reporter gene bioassay (luciferase activity) in HELN-ERβ cells; assay type: cell-based
T1 construct: expressed in transfected cells; host or cells: HeLa (HELN-ERβ)
Description: Briefly, the transactivation bioassay (Reporter gene assay) used are based on the use of breast and uterine cancer cell lines transfected with different native or modified hormone receptors. The resulting cell lines further contain a reporter gene regulated by estrogens through the estrogen response element, the globin promoter and the luciferase gene.
HELN-ERα and HELN-ERβ cell lines were obtained by means of transfecting the HeLa uterine cancer cell line. In a first phase, said cells were transfected with an estrogen sensitive response element and then with the estrogen receptor alpha or beta (ERα or ERβ). The selection of clones resistant to geneticin and puromycin was performed using a concentration of 1 mg/mL and 0.5 mg/mL, respectively. The maintenance medium as well as the experimental medium of these 2 cell lines is DMEM F12 without phenol red supplemented with 6% of FBS (lacking of estrogens), 1% of penicillin / streptomycin, 1 mg/mL of geneticin and 0.5 µg/mL of puromycin.
The cells were seeded at a density of 5x10^4 cells per well in white opaque 96 well plates in 150 µL of experimental medium. After 8 hours, the compounds to be assayed (p-nitrolophine and estradiol) were prepared (concentrated 4x) in the same medium and were added to each well (50 µl). The cells were incubated for 16 hours at 37°C. At the end of the incubation, the medium was removed and replaced with fresh medium containing […] luciferin [at that concentration, luciferin diffuses into cell producing a luminescent signal which is stable after 5 minutes and for at least 2 hours]. The plates were then introduced in the luminometer to measure the luminescence for 2 seconds. A YicroBeta Trilux luminometer (EGG Wallac) apparatus was used to detect luciferase activity.
The assays were preformed in quadruple for each concentration (0.01-10 µM) in at least three independent experiments. […] The values of luciferase activity obtained were analyzed using the one-way ANOVA statistic test. The differences were considered significant when P was less than […] (P < 0.05).

[3] = Absorption spectrum in methanol (195 - 400 nm); assay type: physicochemical; conditions: peak wavelength, 10 mg/ml
Experimental: In order to determine the absorption spectrum, a solution of 10 mg/ml of methanol was prepared from each of the substances. The methanol in turn was used to adjust the zero absorbance in each of the wavelengths in the range of 195 - 400 nm.

[4] = UV spectrum: wavelengths of maximum absorption and absorbance (Cecil 2021 UV-Visible Spectrophotometer); assay type: physicochemical

T1 sequence (Q92731 whole entry, species assumed): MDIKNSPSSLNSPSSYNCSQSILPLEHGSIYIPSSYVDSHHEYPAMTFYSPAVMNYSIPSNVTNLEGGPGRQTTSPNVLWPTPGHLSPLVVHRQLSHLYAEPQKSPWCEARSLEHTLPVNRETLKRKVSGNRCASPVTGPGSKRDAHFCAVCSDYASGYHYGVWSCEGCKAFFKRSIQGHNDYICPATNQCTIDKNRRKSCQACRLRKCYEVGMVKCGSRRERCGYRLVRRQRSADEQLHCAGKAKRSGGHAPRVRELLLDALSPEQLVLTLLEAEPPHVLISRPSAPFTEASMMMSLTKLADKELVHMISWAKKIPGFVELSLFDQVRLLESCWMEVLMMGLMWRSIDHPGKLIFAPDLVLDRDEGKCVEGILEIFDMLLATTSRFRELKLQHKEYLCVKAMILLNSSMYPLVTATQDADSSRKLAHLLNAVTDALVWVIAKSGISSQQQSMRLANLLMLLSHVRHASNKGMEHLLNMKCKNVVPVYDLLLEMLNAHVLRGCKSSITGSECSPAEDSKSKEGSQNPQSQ

specific molar absorptivity ε(379nm) ([1]; 379 nm, slope of the straight line): 16.717 A.U.L/mol | Abs. at 379 nm (A.U.) ([1]; Concentration (mol) 0.0000147): 0.2572 A.U. | Abs. at 379 nm (A.U.) ([1]; Concentration (mol) 0.00002953): 0.5214 A.U. | Abs. at 379 nm (A.U.) ([1]; Concentration (mol) 0.00007382): 1.301 A.U. | Abs. at 379 nm (A.U.) ([1]; Concentration (mol) 0.00014764): 2.4819 A.U. | activity at 0.01 µM (ERβ): 9.6 ± 1.4% | activity at 0.03 µM (ERβ): 10 ± 0.8% | activity at 0.1 µM (ERβ): 10.2 ± 1.3% | activity at 0.3 µM (ERβ): 10.3 ± 1.1% | activity at 1 µM (ERβ): 10.1 ± 1.3% | activity at 3 µM (ERβ): 10.2 ± 1.9% | activity at 10 µM (ERβ): 10.6 ± 1.2% | estrogenicity (ERβ; HELN-ERβ line, conclusion in words): not an estrogenic compound | maximum absorption [3]: 379 nm | UV spectrum A (a.u) ([4]; absorbance at the maximum of the same line): 0.715 a.u and 0.669 a.u and 0.774 a.u | UV spectrum λ (nm) ([4]; wavelengths of the maximum absorption): 221.0 nm and 255.0 nm and 379.0 nm
Structure (SMILES): O=[N+]([O-])c1ccc(-c2nc(-c3ccccc3)c(-c3ccccc3)[nH]2)cc1 [p-nitrolophine, 2-(4-nitrophenyl)-4,5-diphenyl-1H-imidazole]
Erythema induced by UVB radiation in mouse [2]: -
